Tested on: 755483-174-R-J1-PDC complex spheroid growth, percent test/control
Assay: Anticancer human tumor 755483-174-R-J1-PDC patient-derived rhabdomyosarcoma cell line growth inhibition [Asc]
Details: for IC50: curve of first compound; for viability, T/C: stronger effect = lower value
Description: Multicellular complex tumor spheroid response to apoptosis pathway targeting inhibitors Alrizomadlin, Pelcitoclax, and Dasminapant in combination with a variety of drugs and investigational agents in selected tumor cell lines
The MDM2 inhibitor alrizomadlin, the Bcl-2/Bcl-xL inhibitor pelcitoclax, and the IAPs inhibitor dasminapant were evaluated both individually and in combination with standard of care and investigational anticancer small molecules within a complex spheroid model of solid tumors. . Complex spheroids include a stromal component modeled by human endothelial cells (HUVEC) and fibroblasts modeled by human mesenchymal stem cells (MSCs). The concentration ranges selected for each drug and investigational agent were based upon clinically achievable concentrations if the clinical Cmax of the agent was known.
Compounds. The drugs and investigational agents: alrizomadlin (APG-115; NSC831270), pelcitoclax (APG-1252; NSC835773), dasminapant (APG-1387;NSC834197), TAK-243 (NSC785004), copanlisib (NSC809693), olaparib (NSC753686), talazoparib (NSC767125), cobimetinib (NSC 768068), eltanexor (KPT-8602, NSC 794443), abemaciclib (NSC 768073), sotorasib (NSC818433), adagrasib (NSC 831453), MRTX-1133 (NSC 836407), Iadademestat (ORY1001, NSC 806812), and RMC-4630 (NSC839698), were obtained from the NCI Developmental Therapeutics Program Chemical Repository. The FDA-approved anticancer drug set is available from the Developmental Therapeutics Program at https://dtp.cancer.gov/organization/dscb/obtaining/available plates.htm. […] The stock solutions were prepared in dimethyl sulfoxide (DMSO, Sigma-Aldrich, St. Louis, MO, cat. D2650) at 800-fold the tested concentration and stored at -70 degrees C prior to their use. All drugs and investigational agents were tested over a range starting from a high concentration at or near the clinical Cmax and decreasing in half-log increments. If the clinical Cmax for an agent had not been determined, the highest concentration tested was 10 microM.
The patient-derived cancer (PDC) cell lines include five colon adenocarcinomas: 186277-243-T-J2-PDC, 616215-338-R-J1-PDC, 439559-082-T-J2-PDC, 463943-066-T-J2-PDC, and 519858-162-T-J1-PDC; three pancreatic carcinomas: 323965-272-R-J2-PDC, 521955-158-R6-J3-PDC, and 521955-158-R2-J5-PDC; two uterine sarcomas: 327498-152-R-J2-PDC and 993429-296-R-J1-PDC; two rhabdomyosarcomas: 755483-174-R-J1-PDC and 772245-204-R-J1-PDC; two soft tissue sarcomas: 126254-015-R-J1-PDC and 494315-158-R-J1-PDC; two malignant fibrous histiocytomas: 317291-083-R-J1-PDC and 596521-263-R-J1-PDC; two breast carcinomas: 171881-019-R-J1-PDC and 885512-296-R-J2-PDC; and one ovarian carcinoma: 6556581-035-R-J-PDC were obtained from the NCI PDMR, (https://pdmr.cancer.gov). The established cell lines HSSY-2 synovial sarcoma (RRID:CVCL 8719), SYO-1 synovial sarcoma (RRID:CVCL_7146), MPNST malignant peripheral neural sheath tumor were obtained from the Sloan Kettering Institute. The following established cell lines were purchased from the American Type Culture Collection (ATCC, Manassas, VA), Sor the received from the NCI repository:, PANC-1 pancreatic carcinoma (CRL-1469, RRID:CVCL_0480), OVCAR-5 ovarian carcinoma (RRID:CVCL_1628), OVCAR-8 ovarian carcinoma (RRID:CVCL_1629), , MCF-7 breast carcinoma (CRL-12584, RRID:CVCL_0031), MDA-MB-231 breast carcinoma (CRL-12532, RRID:CVCL_0062), NCI-H1876 small cell lung carcinoma (CRL-5902, RRID:CVCL_1503), NCI-H510A small cell lung carcinoma (HTB-184, RRID:CVCL_1565), NCI-H1417 (CRL-5869, RRID:CVCL_1469), and NCI-H196 small cell lung carcinoma (CRL-5823, RRID:CVCL_1509). Dr. Peter Houghton (Greehey Children's Cancer Research Institute, University of Texas Health Science Center, San Antonio, TX) provided Rh-18 rhabdomyosarcoma (RRID:CVCL_1659). Pooled donor human umbilical vein endothelial cells (HUVEC, Lonza, cat. CC-2519) and human mesenchymal stem cells (hMSC, Lonza, cat. PT-2501) were purchased from Lonza (Walkersville, MD).
Cell Culture. […]

[1] = second compound 0.03 µM, first compound 0.0316 µM
[2] = second compound 0.03 µM, first compound 0.1 µM
[3] = second compound 0.0949 µM, first compound 0.0316 µM
[4] = second compound 0.0949 µM, first compound 0.1 µM
[5] = second compound 0.3 µM, first compound 0.0316 µM
[6] = second compound 0.3 µM, first compound 0.1 µM
[7] = second compound 0.949 µM, first compound 0.0316 µM
[8] = second compound 0.949 µM, first compound 0.1 µM
[9] = second compound 3 µM, first compound 0.0316 µM
[10] = second compound 3 µM, first compound 0.1 µM
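Further: spheroids exposed to compounds for seven days before readout.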

**Q.** With `Cn1ncnc1[C@H]1c2n[nH]c(=O)c3cc(F)cc(c23)N[C@@H]1c1ccc(F)cc1` + CCN1C(C(=O)NC23CCC(C(=O)O)(CC2)CC3)C(c2cccc(Cl)c2F)C2(C(=O)Nc3cc(Cl)ccc32)C12CCCCC2 as the molecule, how does the IC50 (second compound 0.03 µM) read?
**A.** 10.9 nM

**Q.** What about the IC50 (second compound 0.0949 µM) of the same molecule?
**A.** 12.4 nM

**Q.** And the IC50 (second compound 0.3 µM)?
**A.** 5.94 nM

**Q.** And the IC50 (second compound 0.949 µM)?
**A.** 7.98 nM

**Q.** What about the IC50 (second compound 3 µM) of the same molecule?
**A.** 1.56 nM

**Q.** What about the viability, T/C (second compound 0.03 µM, first compound 0.000316 µM) of the same molecule?
**A.** 64.6%

**Q.** What about the viability, T/C (second compound 0.03 µM, first compound 0.001 µM) of the same molecule?
**A.** 64.9%

**Q.** What about the viability, T/C (second compound 0.03 µM, first compound 0.00316 µM) of the same molecule?
**A.** 55.6%

**Q.** What about the viability, T/C (second compound 0.03 µM, first compound 0.01 µM) of the same molecule?
**A.** 48.1%

**Q.** What about the viability, T/C [1] of the same molecule?
**A.** 45.9%

**Q.** And the viability, T/C [2]?
**A.** 35.1%

**Q.** What about the viability, T/C (second compound 0.0949 µM, first compound 0.000316 µM) of the same molecule?
**A.** 70.1%

**Q.** And the viability, T/C (second compound 0.0949 µM, first compound 0.001 µM)?
**A.** 71.2%

**Q.** What about the viability, T/C (second compound 0.0949 µM, first compound 0.00316 µM) of the same molecule?
**A.** 62.7%

**Q.** What about the viability, T/C (second compound 0.0949 µM, first compound 0.01 µM) of the same molecule?
**A.** 54.1%

**Q.** What about the viability, T/C [3] of the same molecule?
**A.** 31.1%

**Q.** And the viability, T/C [4]?
**A.** 35.5%

**Q.** And the viability, T/C (second compound 0.3 µM, first compound 0.000316 µM)?
**A.** 64.9%

**Q.** What about the viability, T/C (second compound 0.3 µM, first compound 0.001 µM) of the same molecule?
**A.** 55%

**Q.** What about the viability, T/C (second compound 0.3 µM, first compound 0.00316 µM) of the same molecule?
**A.** 58.6%

**Q.** And the viability, T/C (second compound 0.3 µM, first compound 0.01 µM)?
**A.** 42.7%

**Q.** What about the viability, T/C [5] of the same molecule?
**A.** 30.4%

**Q.** What about the viability, T/C [6] of the same molecule?
**A.** 32.6%

**Q.** And the viability, T/C (second compound 0.949 µM, first compound 0.000316 µM)?
**A.** 66.6%

**Q.** And the viability, T/C (second compound 0.949 µM, first compound 0.001 µM)?
**A.** 66.2%

**Q.** What about the viability, T/C (second compound 0.949 µM, first compound 0.00316 µM) of the same molecule?
**A.** 74%

**Q.** And the viability, T/C (second compound 0.949 µM, first compound 0.01 µM)?
**A.** 45.4%

**Q.** What about the viability, T/C [7] of the same molecule?
**A.** 43.1%

**Q.** And the viability, T/C [8]?
**A.** 33.8%

**Q.** What about the viability, T/C (second compound 3 µM, first compound 0.000316 µM) of the same molecule?
**A.** 59.6%

**Q.** And the viability, T/C (second compound 3 µM, first compound 0.001 µM)?
**A.** 51.8%

**Q.** What about the viability, T/C (second compound 3 µM, first compound 0.00316 µM) of the same molecule?
**A.** 45.5%

**Q.** What about the viability, T/C (second compound 3 µM, first compound 0.01 µM) of the same molecule?
**A.** 45.5%

**Q.** And the viability, T/C [9]?
**A.** 41.6%

**Q.** What about the viability, T/C [10] of the same molecule?
**A.** 39.3%

**Q.** For `O=C(c1cc(Cc2n[nH]c(=O)c3ccccc23)ccc1F)N1CCN(C(=O)C2CC2)CC1` + CCN1C(C(=O)NC23CCC(C(=O)O)(CC2)CC3)C(c2cccc(Cl)c2F)C2(C(=O)Nc3cc(Cl)ccc32)C12CCCCC2, which IC50 (second compound 0.03 µM) is on record?
**A.** 1700 nM

**Q.** What about the IC50 (second compound 0.0949 µM) of the same molecule?
**A.** 2560 nM

**Q.** And the IC50 (second compound 0.3 µM)?
**A.** 1610 nM

**Q.** And the IC50 (second compound 0.949 µM)?
**A.** 1570 nM

**Q.** And the IC50 (second compound 3 µM)?
**A.** 1110 nM

**Q.** What about the viability, T/C [1] of the same molecule?
**A.** 58.3%

**Q.** And the viability, T/C [2]?
**A.** 60.6%

**Q.** And the viability, T/C (second compound 0.03 µM, first compound 0.316 µM)?
**A.** 68.3%

**Q.** What about the viability, T/C (second compound 0.03 µM, first compound 1 µM) of the same molecule?
**A.** 48.4%

**Q.** And the viability, T/C (second compound 0.03 µM, first compound 3.16 µM)?
**A.** 46%

**Q.** What about the viability, T/C (second compound 0.03 µM, first compound 10 µM) of the same molecule?
**A.** 23.4%

**Q.** What about the viability, T/C [3] of the same molecule?
**A.** 79.4%

**Q.** What about the viability, T/C [4] of the same molecule?
**A.** 77%

**Q.** What about the viability, T/C (second compound 0.0949 µM, first compound 0.316 µM) of the same molecule?
**A.** 72%

**Q.** And the viability, T/C (second compound 0.0949 µM, first compound 1 µM)?
**A.** 64.3%

**Q.** What about the viability, T/C (second compound 0.0949 µM, first compound 3.16 µM) of the same molecule?
**A.** 46.5%

**Q.** And the viability, T/C (second compound 0.0949 µM, first compound 10 µM)?
**A.** 26.1%

**Q.** What about the viability, T/C [5] of the same molecule?
**A.** 80.3%

**Q.** What about the viability, T/C [6] of the same molecule?
**A.** 63%

**Q.** And the viability, T/C (second compound 0.3 µM, first compound 0.316 µM)?
**A.** 55.8%

**Q.** And the viability, T/C (second compound 0.3 µM, first compound 1 µM)?
**A.** 57.7%

**Q.** And the viability, T/C (second compound 0.3 µM, first compound 3.16 µM)?
**A.** 52%

**Q.** What about the viability, T/C (second compound 0.3 µM, first compound 10 µM) of the same molecule?
**A.** 28.6%

**Q.** What about the viability, T/C [7] of the same molecule?
**A.** 86.2%

**Q.** And the viability, T/C [8]?
**A.** 69.2%

**Q.** And the viability, T/C (second compound 0.949 µM, first compound 0.316 µM)?
**A.** 66%

**Q.** What about the viability, T/C (second compound 0.949 µM, first compound 1 µM) of the same molecule?
**A.** 58.4%

**Q.** What about the viability, T/C (second compound 0.949 µM, first compound 3.16 µM) of the same molecule?
**A.** 44.2%

**Q.** And the viability, T/C (second compound 0.949 µM, first compound 10 µM)?
**A.** 20.9%

**Q.** And the viability, T/C [9]?
**A.** 71.3%

**Q.** And the viability, T/C [10]?
**A.** 70.8%

**Q.** What about the viability, T/C (second compound 3 µM, first compound 0.316 µM) of the same molecule?
**A.** 50%

**Q.** What about the viability, T/C (second compound 3 µM, first compound 1 µM) of the same molecule?
**A.** 49.5%

**Q.** And the viability, T/C (second compound 3 µM, first compound 3.16 µM)?
**A.** 51.4%

**Q.** What about the viability, T/C (second compound 3 µM, first compound 10 µM) of the same molecule?
**A.** 27.5%

Source: PubChem BioAssay AID1963434 (Molecular Pharmacology Branch, DTP, NCI, 2024)
